Data on 71 compounds can be found in PMC8869358, “High-Throughput Chemical Screening and Structure-Based Models to Predict hERG Inhibition” (Biology, 2022).

The term IC50 denotes the concentration that inhibits the measured activity by half.

Structures can show the parent of a compound that is named as a salt.

This assay deals with hERG (Homo sapiens, UniProt Q12809). Kind of assay: cell-based. As to conditions: (-LOG10(IC50), µM).
hERG, sequence (Q12809 whole entry): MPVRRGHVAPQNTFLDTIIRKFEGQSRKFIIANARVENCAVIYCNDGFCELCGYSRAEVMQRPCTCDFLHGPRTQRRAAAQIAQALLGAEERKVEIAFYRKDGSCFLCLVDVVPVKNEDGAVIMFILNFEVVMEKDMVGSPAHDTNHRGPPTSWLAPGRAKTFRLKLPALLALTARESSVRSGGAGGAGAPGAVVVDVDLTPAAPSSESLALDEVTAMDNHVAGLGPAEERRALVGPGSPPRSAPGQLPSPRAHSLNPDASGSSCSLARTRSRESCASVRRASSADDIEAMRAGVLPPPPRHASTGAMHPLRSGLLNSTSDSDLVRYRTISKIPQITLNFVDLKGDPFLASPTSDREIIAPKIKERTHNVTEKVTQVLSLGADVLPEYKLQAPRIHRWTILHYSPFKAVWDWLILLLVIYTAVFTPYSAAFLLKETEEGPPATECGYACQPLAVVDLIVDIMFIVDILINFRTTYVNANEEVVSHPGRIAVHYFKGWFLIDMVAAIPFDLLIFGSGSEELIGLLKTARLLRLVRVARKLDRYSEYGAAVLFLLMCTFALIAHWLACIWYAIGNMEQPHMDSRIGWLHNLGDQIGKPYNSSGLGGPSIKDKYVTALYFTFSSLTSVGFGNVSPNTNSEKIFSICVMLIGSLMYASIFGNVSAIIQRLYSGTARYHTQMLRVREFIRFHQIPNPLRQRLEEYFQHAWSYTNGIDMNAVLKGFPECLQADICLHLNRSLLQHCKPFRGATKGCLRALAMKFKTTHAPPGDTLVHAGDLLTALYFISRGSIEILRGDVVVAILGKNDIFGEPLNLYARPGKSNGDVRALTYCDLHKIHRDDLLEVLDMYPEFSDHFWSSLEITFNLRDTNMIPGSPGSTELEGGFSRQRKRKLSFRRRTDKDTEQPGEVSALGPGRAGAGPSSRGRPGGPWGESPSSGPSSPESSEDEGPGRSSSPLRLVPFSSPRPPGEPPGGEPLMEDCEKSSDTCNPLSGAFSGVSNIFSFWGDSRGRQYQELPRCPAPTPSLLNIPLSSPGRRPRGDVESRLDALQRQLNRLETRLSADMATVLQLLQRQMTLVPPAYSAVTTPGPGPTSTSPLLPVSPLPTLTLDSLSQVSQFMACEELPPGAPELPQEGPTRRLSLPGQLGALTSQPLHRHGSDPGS
As to `CCCCCCCCCC[N+](C)(CCCCCCCCCC)CCC[Si](OC)(OC)OC` [Didecylmethyl(3-(trimethoxysilyl)propyl)ammonium chloride], the IC50 was 2.65 µM.

In turn, `ClC1=C(Cl)[C@]2(Cl)[C@@H]3[C@@H]4C[C@@H]([C@H]5O[C@@H]45)[C@@H]3[C@@]1(Cl)C2(Cl)Cl` [Dieldrin] gave an IC50 of 33.1 µM.

With `CC1COC(Cn2cncn2)(c2ccc(Oc3ccc(Cl)cc3)cc2Cl)O1` (centres unmarked) [Difenoconazole], the IC50 is 22.7 µM.

On to `Cn1c(-c2ccccc2)cc(-c2ccccc2)[n+]1C` [Difenzoquat metilsulfate], for which inhibition was half-maximal at 34.7 µM (IC50).

`CC(C(O)c1ccccc1)N(C)CCOC(c1ccccc1)c1ccccc1` (centres unmarked) [Difeterol] had an IC50 of 1.83 µM.

`C[C@@H]1CC[C@@]2(OC1)O[C@H]1[C@@H](O)[C@H]3[C@@H]4CC[C@H]5C[C@@H](O[C@@H]6O[C@H](CO)[C@H](O[C@@H]7O[C@H](CO)[C@@H](O)[C@H](O[C@@H]8OC[C@@H](O)[C@H](O)[C@H]8O)[C@H]7O[C@@H]7O[C@H](CO)[C@@H](O)[C@H](O[C@@H]8O[C@H](CO)[C@@H](O)[C@H](O)[C@H]8O)[C@H]7O)[C@H](O)[C@H]6O)[C@H](O)C[C@]5(C)[C@H]4CC[C@]3(C)[C@H]1[C@@H]2C` [Digitonin] showed an IC50 of 8.9 µM.

Compound `CN1C[C@H](C(=O)N[C@]2(C)O[C@@]3(O)[C@@H]4CCCN4C(=O)[C@H](Cc4ccccc4)N3C2=O)C[C@@H]2c3cccc4[nH]cc(c34)C[C@H]21` [Dihydroergotamine] had an IC50 of 19 µM.

`Cc1ccc(S(=O)(=O)C(I)I)cc1` [Diiodomethyl 4-methylphenyl sulfone] showed an IC50 of 46.2 µM.

Compound `COc1cc(C(=O)OCCCN2CCCN(CCCOC(=O)c3cc(OC)c(OC)c(OC)c3)CC2)cc(OC)c1OC` [Dilazep] gave an IC50 of 6.01 µM.

As to `CCCCc1cc2ccccc2c(OCCN(C)C)n1` [Dimethisoquin hydrochloride], half-maximal inhibition (IC50) required 3.65 µM.

Consider `COc1ccc(C(=CC(=O)N2CCOCC2)c2ccc(Cl)cc2)cc1OC` [Dimethomorph], for which the IC50 was 11.8 µM.

Consider `CC(C)(C)C(O)/C(=C\c1ccc(Cl)cc1Cl)n1cncn1` (centres unmarked) [Diniconazole], for which the IC50 is 61.6 µM.

The compound `O=[N+]([O-])c1cccc(S(=O)(=O)NCCNS(=O)(=O)c2cccc([N+](=O)[O-])c2)c1` [Dinsed] showed an IC50 of 14.5 µM.

Take `C=CC(=O)OCC(CO)(COCC(COC(=O)C=C)(COC(=O)C=C)COC(=O)C=C)COC(=O)C=C` [Dipentaerythritol pentaacrylate]: the IC50 was 8.28 µM.

Compound `O=C(Nc1ccccc1)OCC(CN1CCCCC1)OC(=O)Nc1ccccc1` (centres unmarked) [Diperodon hydrochloride] had an IC50 of 6.01 µM.

The compound `C[N+]1(C)CCC(=C(c2ccccc2)c2ccccc2)CC1` [Diphemanil methylsulfate] gave an IC50 of 6.24 µM.

Regarding `CCOC(=O)C1(c2ccccc2)CCN(CCC(C#N)(c2ccccc2)c2ccccc2)CC1` [Diphenoxylate hydrochloride], inhibition was half-maximal at 0.624 µM (IC50).

Compound `O=C(Oc1ccccc1)c1cccc(C(=O)Oc2ccccc2)c1` [Diphenyl isophthalate] had an IC50 of 25 µM.

`O=C(Oc1ccccc1)c1ccccc1C(=O)Oc1ccccc1` [Diphenyl phthalate] had an IC50 of 15.5 µM.

With `c1ccc(Sc2ccccc2)cc1` [Diphenyl sulfide], the IC50 was 43.6 µM.

In turn, `Cc1cc(C)c(C(=O)P(=O)(c2ccccc2)c2ccccc2)c(C)c1` [Diphenyl(2,4,6-trimethylbenzoyl)phosphine oxide] had an IC50 of 20.3 µM.

For the compound `CC[N+](CC)(CC)CCOC(=O)C(C1CCCC1)C1CCCC1` [Diponium bromide], the half-maximal inhibitory concentration (IC50) is 9.52 µM.

In turn, `CC(=O)OCCN(CCOC(C)=O)c1ccc(/N=N/c2ccc([N+](=O)[O-])cc2C#N)cc1` [Disperse Red 82] gave an IC50 of 24.5 µM.

Compound `CCOP(=S)(OCC)SCCSCC` [Disulfoton] gave an IC50 of 43.3 µM.

In turn, `N#Cc1sc2c(=O)c3ccccc3c(=O)c=2sc1C#N` [Dithianon] showed an IC50 of 30.9 µM.

For `CCCCCCCCCCCCN` [Dodecylamine hydrochloride], 13.3 µM corresponded to half-maximal inhibition (IC50).

For `CCCCCCCCCCCC[N+](C)(C)C` [Dodecyltrimethylammonium bromide], 21 µM corresponded to half-maximal inhibition (IC50).

`CCCCCCCCCCCC[N+](C)(C)C` [Dodecyltrimethylammonium chloride] showed an IC50 of 18 µM.

Compound `CCCCCCCCCCCC[N+](C)(C)CCOc1ccccc1` [Domiphen bromide] gave an IC50 of 1.34 µM.

In the case of `Cc1ccc(-n2nc(C(C)(C)C)cc2NC(=O)Nc2ccc(OCCN3CCOCC3)c3ccccc23)cc1` [Doramapimod], the IC50 is 20.1 µM.

For `Cc1ccc(CCn2c3c(c4cc(Cl)ccc42)CN(C)CC3)cn1` [Dorastine], half-maximal inhibition (IC50) required 15.7 µM.

The compound `CCN(CC)CCOC(=O)C(c1ccccc1)C1CCCCC1` (centres unmarked) [Drofenine hydrochloride] had an IC50 of 7.86 µM.

The compound `CCCCc1oc2ccc(NS(C)(=O)=O)cc2c1C(=O)c1ccc(OCCCN(CCCC)CCCC)cc1` [Dronedarone] had an IC50 of 0.849 µM.

`CCCCOc1ccc(C(=O)CCN2CCCCC2)cc1` [Dyclonine hydrochloride] gave a 50% inhibitory concentration (IC50) of 20.1 µM.

For the compound `CCOP(=S)(Oc1ccc([N+](=O)[O-])cc1)c1ccccc1` (centres unmarked) [EPN], inhibition was half-maximal at 0.776 µM (IC50).

On to `CN1CCc2cc(Cl)c(O)cc2[C@H]2c3ccccc3CC[C@@H]21` [Ecopipam], for which the half-inhibitory concentration (IC50) is 10.3 µM.

Compound `CN1CCN(c2ccccc2/C=C2\SCCN(c3ccc(Cl)c(Cl)c3)C2=O)CC1` [Elzasonan] had an IC50 of 1.61 µM.

`CCOCCn1c(N2CCCN(C)CC2)nc2ccccc21` [Emedastine difumarate] had an IC50 of 6.24 µM.

Compound `O=S1OC[C@@H]2[C@H](CO1)[C@]1(Cl)C(Cl)=C(Cl)[C@@]2(Cl)C1(Cl)Cl` (some centres unmarked) [Endosulfan I] showed an IC50 of 43.6 µM.

For the compound `O=S1(=O)OC[C@@H]2[C@H](CO1)[C@]1(Cl)C(Cl)=C(Cl)[C@@]2(Cl)C1(Cl)Cl` [Endosulfan sulfate], the IC50 was 16.1 µM.

`Cc1ccc(C=C2C(=O)C3(C)CCC2C3(C)C)cc1` (centres unmarked) [Enzacamene] had an IC50 of 30.7 µM.

As to `CCN1CCCC1CNC(=O)C(O)(c1ccccc1)c1ccccc1` (centres unmarked) [Epicainide], the half-inhibitory concentration (IC50) is 19.7 µM.

As to `CCOC(CN1CCN(CC(C)C(=O)c2ccccc2)CC1)c1ccccc1` (centres unmarked) [Eprazinone dihydrochloride], inhibition was half-maximal at 9.28 µM (IC50).

Turning to `CN1C[C@H](C(=O)N[C@]2(C)O[C@@]3(O)[C@@H]4CCCN4C(=O)[C@H](Cc4ccccc4)N3C2=O)C=C2c3cccc4[nH]cc(c34)C[C@H]21` [Ergotamine D-tartrate], the IC50 was 11.9 µM.

Take `C[C@]12CC[C@@H]3c4ccc(O)cc4CC[C@H]3[C@@H]1CC[C@@H]2OC(=O)CCC1CCCC1` [Estradiol cypionate]: the IC50 worked out at 43.6 µM.

The compound `CC(=O)O[C@@H]1CC2C3CCc4cc(OC(=O)c5ccccc5)ccc4C3CCC2(C)[C@H]1OC(C)=O` (some centres unmarked) [Estriol benzoate diacetate] gave an IC50 of 5.35 µM.

`CCN(CC)CCOc1ccccc1C(=O)CCc1ccccc1` [Etafenone] gave a half-maximal inhibitory concentration (IC50) of 3.25 µM.

`C=C(C)CN(CC)c1c([N+](=O)[O-])cc(C(F)(F)F)cc1[N+](=O)[O-]` [Ethalfluralin] showed an IC50 of 36 µM.

For the compound `CCOC(=O)C1=NOC(c2ccccc2)(c2ccccc2)C1` [Ethyl 5,5-diphenyl-2-isoxazoline-3-carboxylate], the IC50 was 36.7 µM.

In turn, `CCc1cc(Cl)c(OC)c(C(=O)NC[C@@H]2CCCN2CC)c1O` [Eticlopride hydrochloride] showed an IC50 of 7.56 µM.

Compound `CCC(CN)=C(c1ccccc1)c1ccccc1` [Etifelmine hydrochloride] showed an IC50 of 20.5 µM.

For `O=C(OCCOCCO)c1ccccc1Nc1cccc(C(F)(F)F)c1` [Etofenamate], it took 13.4 µM to reach half-maximal inhibition (IC50).

For `CCOc1cc(C(C)(C)C)ccc1C1COC(c2c(F)cccc2F)=N1` (centres unmarked) [Etoxazole], the IC50 was 13.8 µM.

For the compound `Cc1[nH]cnc1C[C@H]1CCc2c(C)c3ccccc3n2C1=O` [Fabesetron hydrochloride], the half-inhibitory concentration (IC50) was 7.01 µM.

The compound `CC1(c2ccc(Oc3ccccc3)cc2)OC(=O)N(Nc2ccccc2)C1=O` (centres unmarked) [Famoxadone] had an IC50 of 22.9 µM.

`CC(C)=CCCC(C)=CCCC(C)=CCO` [Farnesol] gave an IC50 of 47.1 µM.

`OC(c1ccc(Cl)cc1)(c1cncnc1)c1ccccc1Cl` (centres unmarked) [Fenarimol]: the half-inhibitory concentration (IC50) was 47.9 µM.

In the case of `N#CC(CCc1ccc(Cl)cc1)(Cn1cncn1)c1ccccc1` (centres unmarked) [Fenbuconazole], the IC50 is 18.1 µM.

For the compound `CCOC(=O)c1nc(C(Cl)(Cl)Cl)n(-c2ccc(Cl)cc2Cl)n1` [Fenchlorazole-ethyl], the half-maximal inhibitory concentration (IC50) is 49 µM.

With `CC(NCCC(c1ccccc1)c1ccccc1)c1ccccc1` (centres unmarked) [Fendiline hydrochloride], the IC50 was 1.69 µM.

Compound `O=C(CN1CCN(Cc2ccc3c(c2)OCO3)CC1)N1c2ccccc2Sc2ccccc21` [Fenoverine] gave an IC50 of 3.51 µM.

Consider `CCOC(=O)[C@@H](C)Oc1ccc(Oc2nc3ccc(Cl)cc3o2)cc1` [Fenoxaprop-P-ethyl], for which the IC50 was 26 µM.

As for `CCOC(=O)C(C)Oc1ccc(Oc2nc3ccc(Cl)cc3o2)cc1` (centres unmarked) [Fenoxaprop-ethyl], it took 30.9 µM to reach half-maximal inhibition (IC50).

As for `CCOC(=O)NCCOc1ccc(Oc2ccccc2)cc1` [Fenoxycarb], 45.3 µM corresponded to half-maximal inhibition (IC50).

With `Clc1ccc(C(Cn2ccnc2)OCc2ccc(Sc3ccccc3)cc2)c(Cl)c1` (centres unmarked) [Fenticonazole], the IC50 is 12.5 µM.

For `O=C(COc1ccc(Cl)cc1)N1CCN(Cc2ccc3c(c2)OCO3)CC1` [Fipexide hydrochloride], 16.1 µM corresponded to half-maximal inhibition (IC50).

Regarding `CCCCOC(=O)[C@@H](C)Oc1ccc(Oc2ccc(C(F)(F)F)cn2)cc1` [Fluazifop-P-butyl], the IC50 is 22 µM.

In the case of `CCCCOC(=O)C(C)Oc1ccc(Oc2ccc(C(F)(F)F)cn2)cc1` (centres unmarked) [Fluazifop-butyl], the 50% inhibitory concentration (IC50) is 23.2 µM.

`O=C(NC(=O)c1c(F)cccc1F)Nc1ccc(Oc2ccc(C(F)(F)F)cc2Cl)cc1F` [Flufenoxuron]: it took 37.4 µM to reach half-maximal inhibition (IC50).

In turn, `CCOC(=O)COc1cc(-n2ncc(C(F)(F)F)c(C)c2=O)c(F)cc1Cl` [Flufenpyr-ethyl] showed an IC50 of 30.9 µM.

The compound `CCCCCOC(=O)COc1cc(N2C(=O)C3=C(CCCC3)C2=O)c(F)cc1Cl` [Flumiclorac-pentyl] showed an IC50 of 16.4 µM.
